For assay [1], the system named is C. difficile strain ATCC43255. As to the kind of experiment: Toxin A production in high cell density stationary phase C. difficile cultures (ELIFA). It counts as cell-based. The conditions noted are these: 4 day old stationary phase cultures, toxin A by ELIFA. As for the experimental part: C. difficile strain ATCC43255 was grown and maintained anaerobically on CDC anaerobe agar (Remel, Lenexa, Kans.). To test the effect of antibacterial agents on growth, cells were grown anaerobically for 40 h at 35° C. in 96-well brain heart infusion (BHI) broth cultures, with an initial inoculum of 10^6 CFU/mL. To test the effect of antibacterial agents on toxin production at high C. difficile cell densities, the cells were grown anaerobically for 24 h at 35° C. in 96-well brain heart infusion (BHI) broth cultures. Spent medium was then replaced with fresh broth containing MetRS inhibitors and control agents at a concentration range of 0.015-16 μg/mL. After 4 days, growth and cell viability were monitored by optical density measurements at 595 nm and by culture on CDC anaerobe agar, respectively. Culture supernatants were collected, and toxin A was detected by ELIFA (enzyme-linked immuno-flow assay) using an anti toxin A monoclonal antibody (Novus Biologicals, Centennial, Colo.).

Another assay has as its system C. difficile. The experiment in a line: C. difficile-infected hamster survival study. It counts as in vivo. As for the experimental part: Animal studies were performed to determine the efficacy of MetRS inhibitors for treating C. difficile-infections. The MetRS inhibitors tested were 5-[3-((R)-6,8-Dibromo-chroman-4-ylamino)-propylamino]-4H-thieno[3,2-b]pyridine-7-one (both racemic mixture and the R enantiomer), 5-[3-((R)-8-Bromo-6-chloro-chroman-4-ylamino)-propylamino]-4H-thieno[3,2-b]pyridin-7-one, and 2-(3-{3,5-Dibromo-2-[2-(4-methyl-thiazol-5-yl)-ethoxy]-benzylamino}-propylamino)-1H-quinolin-4-one.
Results were compared to C. difficile-infected hamsters treated with the conventional antibiotic, vancomycin. Infected hamsters were treated with either a solution or suspension of a MetRS inhibitor at 5 to 50 mg/kg or vancomycin at 2.5, 5 or 25 mg/kg. There were eight hamsters per group with the final endpoint of the experiment being survival. Expired hamsters were examined for GI condition.

These results are taken from patent US8697720B2 (Crestone, Inc., priority 2006, dated 2014).

With `Cc1ncsc1CCOc1c(Br)cc(Br)cc1CNCCCNc1cc(=O)c2sccc2[nH]1`, the “concentrations that inhibited toxin production” value in assay [1] turned out to be 0.25 µg/mL.
Same read-out and setting: as for `Cl.Cl.Cl.O=c1cc(NCCCNC2CCNc3c(Br)cc(Br)cc32)[nH]c2ccsc12` (stereo not drawn) [5-[3-(6,8-Dibromo-1,2,3,4-tetrahydro-quinolin-4-ylamino)-propylamino]-4H-thieno[3,2-b]pyridin-7-one tri-hydrochloride], the figure is 0.25 µg/mL.
On the same count and under the same terms, as for `O=c1cc(NCCCNC2CCOc3c(Br)cc(Br)cc32)[nH]c2ccsc12` (stereo not drawn) [5-[3-(6,8-Dibromo-chroman-4-ylamino)-propylamino]-4H-thieno[3,2-b]pyridin-7-one], the figure is 0.25 µg/mL.
As for `O=c1cc(NCCCN[C@@H]2CCOc3c(Br)cc(Br)cc32)[nH]c2ccsc12` [5-[3-((R)-6,8-Dibromo-chroman-4-ylamino)-propylamino]-4H-thieno[3,2-b]pyridine-7-one], the “survival of infected hamsters” value in the assay with C. difficile (MetRS inhibitor at 5 to 50 mg/kg, untreated controls died within 3-4 days) is “best efficacy”.
Take `Cl.Cl.O=c1cc(NCCCN[C@@H]2CCOc3c(Br)cc(Br)cc32)[nH]c2ccsc12` [R-(+)-5-[3-(6,8-Dibromo-chroman-4-ylamino)-propylamino]-4H-thieno[3,2-b]pyridin-7-one di-hydrochloride]: the “concentrations that inhibited toxin production” value in assay [1] came out at 0.25 µg/mL.
With `CN[C@H](CC(C)C)C(=O)N[C@H]1C(=O)N[C@@H](CC(N)=O)C(=O)N[C@H]2C(=O)N[C@H]3C(=O)N[C@H](C(=O)N[C@H](C(=O)O)c4cc(O)cc(O)c4-c4cc3ccc4O)[C@H](O)c3ccc(c(Cl)c3)Oc3cc2cc(c3O[C@@H]2O[C@H](CO)[C@@H](O)[C@H](O)[C@H]2O[C@H]2C[C@](C)(N)[C@H](O)[C@H](C)O2)Oc2ccc(cc2Cl)[C@H]1O` [vancomycin, reference compound], in the assay on C. difficile (Day 28, vancomycin at 2.5, 5 or 25 mg/kg), the survival with vancomycin is reported as 0-10%.
